The NIST ThermoML archive (doi:10.1016/j.fluid.2014.11.026)
“And” between values parts separate entries of the source, which are not always exact repeats. Equal values may be shown once.

Details: Closed cell (Static) method

O=C(O)c1ccccc1 [benzoic acid]
Crystal
Details | vapor or sublimation pressure [kPa]
297.67 K | 0.000108
299.96 K | 0.000142
300.03 K | 0.000143
302.51 K | 0.000193
304.75 K | 0.00025
307.27 K | 0.000335
309.63 K | 0.000436
312.08 K | 0.000573
314.4 K | 0.000738
314.59 K | 0.000754
316.91 K | 0.000969
319.48 K | 0.00127
321.91 K | 0.001641
324.39 K | 0.002118
326.76 K | 0.002676
329.2 K | 0.003432
331.62 K | 0.004361
334.07 K | 0.005542
336.46 K | 0.006934
338.98 K | 0.008733

[CH]1C=CC=C1.[CH]1C=CC=C1.[Fe] [ferrocene]
Crystal
Details | vapor or sublimation pressure [kPa]
280.91 K | 0.000154
282.03 K | 0.000176
283.33 K | 0.000202
284.44 K | 0.000229
285.74 K | 0.000264
286.87 K | 0.000298
288.14 K | 0.000344
289.31 K | 0.000388
290.59 K | 0.000447
291.71 K | 0.000501
293.03 K | 0.000576
294.12 K | 0.000646
295.42 K | 0.000741
296.52 K | 0.000829
297.8 K | 0.000942
297.83 K | 0.000947
300.23 K | 0.001197
300.35 K | 0.001218
302.84 K | 0.001542
304.06 K | 0.001742
304.13 K | 0.001753
305.54 K | 0.002007
307.9 K | 0.002499
311.31 K | 0.003428
312.99 K | 0.00399
315.35 K | 0.004949
316.48 K | 0.005493
317.93 K | 0.006236
319.06 K | 0.006868
320.29 K | 0.007672
320.95 K | 0.008091
321.69 K | 0.008661
322.63 K | 0.00937
324 K | 0.01056
325.29 K | 0.01176
325.31 K | 0.0117
327.79 K | 0.01447
330.22 K | 0.01764
331.21 K | 0.01908
332.72 K | 0.0215
335.15 K | 0.02616
336.4 K | 0.02867
337.89 K | 0.03234
340.33 K | 0.03875
341.35 K | 0.04176
342.83 K | 0.04685
345.27 K | 0.05631
346.28 K | 0.06042
347.77 K | 0.06739
350.23 K | 0.08052
351.2 K | 0.08649
352.7 K | 0.09579
355.17 K | 0.1142
357.88 K | 0.1377
360.37 K | 0.1622
362.8 K | 0.1914
365.3 K | 0.2244
367.75 K | 0.2639
370.2 K | 0.3093
372.93 K | 0.3682
375.4 K | 0.425
377.87 K | 0.4978
380.32 K | 0.5748
382.8 K | 0.6695
385.27 K | 0.7725
387.75 K | 0.8978
390.22 K | 1.03
392.69 K | 1.185

CC(=O)CCC=C(C)C [6-methyl-5-hepten-2-one]
Liquid
Details | vapor or sublimation pressure
283.85 K | 0.05465 kPa
283.86 K | 0.05482 kPa and 0.05462 kPa
283.92 K | 0.05498 kPa
286.18 K | 0.06551 kPa
286.23 K | 0.06608 kPa
286.24 K | 0.06599 kPa
288.57 K | 0.07931 kPa
288.59 K | 0.07922 kPa
288.61 K | 0.07945 kPa
288.69 K | 0.07994 kPa
290.97 K | 0.09477 kPa
291 K | 0.09535 kPa
291.02 K | 0.09517 kPa
293.47 K | 0.1142 kPa
293.49 K | 0.1148 kPa
295.81 K | 0.1358 kPa
295.85 K | 0.1362 kPa
295.88 K | 0.1365 kPa
298.28 K | 0.1619 kPa
298.31 K | 0.1623 kPa
300.61 K | 0.1903 kPa
300.65 K | 0.1915 kPa
300.69 K | 0.1919 kPa
303.12 K | 0.2264 kPa
303.15 K | 0.2273 kPa
305.45 K | 0.2654 kPa
305.48 K | 0.2664 kPa
305.54 K | 0.2673 kPa
307.99 K | 0.3137 kPa
308.02 K | 0.3147 kPa
310.3 K | 0.3637 kPa
310.36 K | 0.3668 kPa
310.42 K | 0.3665 kPa
312.88 K | 0.4306 kPa
312.9 K | 0.4306 kPa
315.16 K | 0.4939 kPa
315.23 K | 0.4983 kPa
315.28 K | 0.4979 kPa
317.72 K | 0.5789 kPa
317.75 K | 0.5801 kPa
320.01 K | 0.6665 kPa
320.07 K | 0.6684 kPa
320.13 K | 0.6684 kPa
322.5 K | 0.769 kPa
322.52 K | 0.7718 kPa
322.56 K | 0.7724 kPa
324.84 K | 0.8831 kPa
324.89 K | 0.8852 kPa
324.93 K | 0.8864 kPa
327.28 K | 1.015 kPa
327.32 K | 1.015 kPa
327.36 K | 1.016 kPa

C=CC(C)(O)CCC=C(C)C (stereo not drawn) [3,7-dimethyl-1,6-octadien-3-ol]
Liquid
Details | vapor or sublimation pressure
284.62 K | 0.006422 kPa
286.91 K | 0.008001 kPa
289.26 K | 0.01007 kPa
291.61 K | 0.01262 kPa
294.02 K | 0.01583 kPa
296.39 K | 0.01969 kPa and 0.01967 kPa
298.77 K | 0.0242 kPa
301.14 K | 0.02977 kPa
301.2 K | 0.02999 kPa
303.59 K | 0.03677 kPa
305.95 K | 0.04473 kPa
305.99 K | 0.04494 kPa
308.38 K | 0.05475 kPa
310.74 K | 0.0661 kPa
310.78 K | 0.06649 kPa
313.18 K | 0.08076 kPa
316.23 K | 0.1024 kPa
321.01 K | 0.1464 kPa
325.83 K | 0.2062 kPa
330.68 K | 0.2877 kPa
335.48 K | 0.394 kPa
340.29 K | 0.5345 kPa
342.71 K | 0.6231 kPa
345.69 K | 0.7489 kPa
348.12 K | 0.8693 kPa
350.51 K | 0.9921 kPa
352.9 K | 1.136 kPa

O=C(c1ccccc1)c1ccccc1 [benzophenone]
Details | vapor or sublimation pressure [kPa]
300.37 K, Crystal | 0.000119
302.88 K, Crystal | 0.000161
302.91 K, Liquid | 0.000237
305.39 K, Crystal | 0.00022
305.41 K, Liquid | 0.000306
307.9 K, Crystal | 0.000302
307.91 K, Liquid | 0.000394
310.26 K, Crystal | 0.000401
310.41 K, Liquid | 0.000503
312.75 K, Crystal | 0.000535
315.24 K, Crystal | 0.000708
317.73 K, Crystal | 0.000939
318.01 K, Liquid | 0.001028
320.23 K, Crystal | 0.001239
320.51 K, Liquid | 0.001288
323.09 K, Liquid | 0.001615
325.59 K, Liquid | 0.002005
328.11 K, Liquid | 0.002469
330.61 K, Liquid | 0.003064
333.13 K, Liquid | 0.003771
335.64 K, Liquid | 0.00461
338.16 K, Liquid | 0.005616
340.68 K, Liquid | 0.006814
343.21 K, Liquid | 0.008284
345.73 K, Liquid | 0.009949
348.24 K, Liquid | 0.01196
350.76 K, Liquid | 0.01435
353.28 K, Liquid | 0.01704
355.79 K, Liquid | 0.02035
358.31 K, Liquid | 0.02415
360.82 K, Liquid | 0.02859
363.34 K, Liquid | 0.03356
368.37 K, Liquid | 0.04652
370.89 K, Liquid | 0.0543

CCCCC(=O)CCCC [5-nonanone]
Liquid
Details | vapor or sublimation pressure [kPa]
283.83 K | 0.02528
283.85 K | 0.02535
286.19 K | 0.03083
288.55 K | 0.03722
290.9 K | 0.04494
293.32 K | 0.05439
293.35 K | 0.0544
295.75 K | 0.06539
298.1 K | 0.07793
298.12 K | 0.0783
300.56 K | 0.09349
302.92 K | 0.1107
302.94 K | 0.111
305.38 K | 0.1321
307.75 K | 0.1553
307.77 K | 0.1559
310.19 K | 0.1839
312.99 K | 0.2228
313.02 K | 0.2225
315 K | 0.2527
315.38 K | 0.2591
317.8 K | 0.3037
317.81 K | 0.3041
320.16 K | 0.3527
320.18 K | 0.3545
322.58 K | 0.4099
322.62 K | 0.4118
324.99 K | 0.476
325.05 K | 0.4746
327.44 K | 0.5474
327.49 K | 0.5494
329.9 K | 0.6318
329.95 K | 0.638
332.32 K | 0.7257
332.35 K | 0.7296
334.71 K | 0.8311
334.74 K | 0.8375
337.13 K | 0.9562
337.15 K | 0.9511

c1ccc2ccccc2c1 [naphthalene]
Crystal
Details | vapor or sublimation pressure [kPa]
297.72 K | 0.01042
300.06 K | 0.0131
302.47 K | 0.01651
304.88 K | 0.02077
307.27 K | 0.02598
309.69 K | 0.03247
312.35 K | 0.04107
314.78 K | 0.05102
317.21 K | 0.06281
319.66 K | 0.0774
322.08 K | 0.0949
324.51 K | 0.1161
326.97 K | 0.1415
